Series [1] deals with wild type female and male littermate mice. The series can be described thus: Locomotor activity. In kind it is in vivo, mice (mixed C57BL/6J and 129/Sv). The settings on record: for total ambulatory activity (cumulative beam breaks): ICV.
A short description of series [2]: Solubility / precipitation of SKY2-23-7. It counts as physicochemical.
Series [3] concerns wild type female and male littermate mice. Description: Respiratory exchange ratio. In kind it is in vivo, mice (mixed C57BL/6J and 129/Sv).
Series [4] relates to mMC4R. The settings on record: HEK293 cells, ref [22],[23] (Doering et. al.), cited from earlier work.
Series [5] relates to wild type female and male littermate mice. Description: Energy expenditure after ICV administration, TSE metabolic cages. It counts as in vivo, mice (mixed C57BL/6J and 129/Sv).
For series [6] the test system is unchanged. Description: Cumulative food intake after ICV administration, TSE metabolic cages. It counts as in vivo, mice (mixed C57BL/6J and 129/Sv).
The next series concerns mMC5R. The following applies: read-out: EC50 at mMC5R; agonist; ref [22],[23]; cited from earlier work.
The test system of a further series is mMC1R. The following applies: read-out: EC50 at mMC1R; agonist; ref [22],[23]; cited from earlier work.
Another series deals with male and female mice. In kind it is in vivo, mice (mixed C57BL/6J and 129/Sv). The settings on record: 5 nmol ICV, conventional cages, pilot.
A further series has as its system mouse (m)MC3R. The settings on record: HEK293 cells, cited from earlier work.
The test system of series [7] is MC3R and MC4R knockout mice. The settings on record: cited from earlier work.
In series [8] the test system is mMC4R. The settings on record: antagonist/inverse agonist, ref [40],[41], cited from earlier work.
The conditions of series [9]: ref [13],[24]; cited from earlier work.
For series [10], the system named is females, ovariectomized or estradiol treated. The settings on record: cited from earlier work; for effect of ovariectomy or estradiol treatment on food intake after ligand: ref [13],[21],[34].
In the next series the test system is female and male rats. The following applies: ref [13]; cited from earlier work.
For a further series, the system named is male and female rats. The following applies: ICV, ref [5] Maranon and coworkers in 2014, cited from earlier work.

By pA2 is commonly meant a measure of antagonist potency on a negative log scale. One may read the EC50 as the concentration giving half of the maximal effect. Broadly, the Ki is a dissociation constant, usually derived from enzyme kinetics or from competition with a known ligand.

Several values for one entry are separate records, joined by “and”; a condition that tells them apart may be missing. Equal entries are not always repeated. Entries after “also recorded” stand apart in the source; their conditions may differ. Where two headings read alike, the source gives them in different places. [ ]: non-standard residue; d: D form. dPhe(4-I) = N[C@H](Cc1ccc(I)cc1)C(=O)O

As for Ac-W[dPhe(4-I)]RW-NH2 [SKY2-23-7], the hourly activity result in series [1] (female, 2.5 nmol ICV, 5 hours post administration) is listed as “Increased activity”; in series [1] (female, 2.5 nmol ICV, 24 hours post administration), “significant decrease in activity”; in [1] (male, 7.5 nmol ICV, time points 8, 15, 18, and 24 hours) it was “significant increases in activity”. The total activity entry is “significant decrease in total activity” in series [1] (female, 5 nmol ICV, light cycle, p<0.05); “no other doses resulted in a significant changes in total activity” in [1] (female, other doses ICV, dark cycle (0–14 hrs), p=0.28); “no other doses resulted in a significant changes in total activity” in series [1] (female, other doses ICV, light cycle (14–26 hrs), p=0.65). The “total ambulatory activity (cumulative beam breaks)” value in series [1] (male, dark cycle (0–14 hrs), p=0.39) is on record as “no significant effect”; in [1] (male, light cycle (14–26 hrs), p=0.64), “no significant effect”. Moreover, the solubility in saline entry in series [2] (added to saline alone) was “precipitated out”. The “solubility limit on dosing” value in series [2] (doses above 7.5 nmol ICV, male mice) was “higher dosing was prevented due to the solubility”. In [3] (female, 2.5 nmol ICV, both dark and light cycles, p<0.01), the “average RER” value is recorded as “significantly increased”. Further, the RER entry in [3] (female, 7.5 nmol ICV) is “no effect”; in [3] (male, 2.5 nmol ICV), “minimal effect”. Also, the “hourly RER” value is listed as “significantly increased” in series [3] (male, 7.5 nmol ICV, early light cycle 15–18 hrs post-administration); “increased” in series [3] (male, 7.5 nmol ICV, individual time points 2–7 and 10–14 hours). In addition, the “total average RER” value is on record as “No significant effect” in series [3] (male, 7.5 nmol ICV, entire light cycle (14–26 hrs)); “increased” in series [3] (male, 7.5 nmol ICV, first dark cycle (0–14 hrs), p<0.01); “increased” in [3] (male, 7.5 nmol ICV, first two hours following injection, p<0.01). Besides, the “pA2 at mMC4R” value with mMC4R [4] (Schild analysis, antagonist) is 7.83 and 7.83±0.16. In the series with mMC4R [4] (up to 100 µM), the “agonist activity at mMC4R” value is “minimal agonist activity”. In addition, the energy expenditure result is on record as “significant increase in energy expenditure” in [5] (female, 2.5 nmol ICV, p<0.001, observed at 5, 6, 15, 21, and 22 hours); “No significant effect” in [5] (male, doses lower than 7.5 nmol ICV). In addition, the “total calories burned in 24 hours” value in series [5] (female, 7.5 nmol ICV, p<0.05) is listed as “significant decrease in total calories burned”. In series [5] (male, 7.5 nmol ICV), the “energy expenditure (trend)” value is reported as “trended towards decreasing energy expenditure”. Moreover, the “hourly energy expenditure normalized to weight (Kcal/hr/kg)” value in series [5] (male, 7.5 nmol ICV, at 4, 20, 21, 23 and 24 hours, compared to control) is recorded as “decrease in energy expenditure”. The “total calories spent in 24 hours” value in [5] (male, ICV) is “no effect”. For the same substance, the cumulative food intake entry was “significant increase in food intake” in [6] (female, 2.5 nmol ICV, 6–24 hours post-administration); “no significant effect” in series [6] (female, 5 nmol ICV); “no significant effect” in series [6] (female, 7.5 nmol ICV); “no significant effect” in series [6] (male, 2.5 nmol ICV); “significant increase in food intake” in series [6] (male, 7.5 nmol ICV, 2–24 hours post-administration). Also, the “cumulative food intake, dose response” value in [6] (female, 2.5 nmol, 1 nmol, and 0.5 nmol ICV) is recorded as “A dose response pattern is observed”; in series [6] (male, ICV, metabolic cages, p<0.0001) it was “dose dependent increase in food intake”. The values for the concentration giving a half-maximal response (EC50) with mMC5R and with mMC1R were 2800 ± 1100 nM and 2000 ± 600 nM, respectively. For the same substance, the food intake result with male and female mice (female, trend of increase in food intake) was “not observed”; in the series on male and female mice (male), “an increase in food intake was observed”. Further, in the series with mouse (m)MC3R (Schild analysis, antagonist, ref [22],[23] (Doering et. al.)), the “pA2 at mMC3R” value is given as 5.43±0.16. Besides, in the series on mouse (m)MC3R (up to 100 µM, ref [22],[23] (Doering et. al.)), the “agonist activity at mMC3R” value is “minimal agonist activity; also recorded: lacks the mMC3R partial agonism”.

Consider MTII, for which the “sex difference in food intake effect” value in [7] (MC3R and MC4R knockout mice, same genotype, ref [15],[16]) is “no differences reported between male and female mice”. Besides, the food intake result in [7] (MC3R and MC4R knockout mice, ref [15],[16]) is “decrease food intake”.

Take “AGRP: endogenous MC3R antagonist and MC4R antagonist/inverse agonist AGRP (SSRRCVRLHESCLGQQVPCCDPCATCYCRFFNAFCYCRKLGTAMNPCSRT; UniProt O00253 83-132, looked up)”: the “pA2 at mMC4R” value in the series with mMC4R [8] is 9.4. Besides, the inhibition constant (Ki) on mMC4R [8] (read-out: Ki at mMC4R) is 0.4 to 2.5 nM. Moreover, in series [9], the energy expenditure result is “decrease energy expenditure” and the “respiratory exchange ratio (RER)” value is on record as “increase respiratory exchange ratio”. Also, the “effect of ovariectomy on ligand-dependent energy expenditure” value in series [10] (females, ref [13]) was “ovariectomy can blunt”. In addition, the “effect of ovariectomy or estradiol treatment on food intake after ligand” value in series [10] is on record as “minimal effects on food intake”. For the same substance, in series [7] (ICV, MC3R and MC4R male knockout mice, ref [8],[12]), the food intake result is “increased food intake”. In the series on female and male rats, the “energy expenditure, female versus male” value is on record as “reduces energy expenditure in female rats more than in male rats” and the food intake entry is reported as “food intake is unaffected”.

On to SHU9119, for which the energy expenditure result in series [9] is given as “decrease energy expenditure”. Moreover, the “effect of ovariectomy or estradiol treatment on food intake after ligand” value in series [10] is listed as “minimal effects on food intake”. Further, the blood pressure entry in the series with male and female rats (female rats) is given as “no effect on blood pressure”; with male and female rats (male rats) it was “significantly reduced blood pressure”. In addition, in the series on mouse (m)MC3R (at 1 µM, ref [22] (Doering et. al.)), the “partial agonism at mMC3R” value is listed as 50%.

The values above are taken from paper PMC5687811 (ACS chemical neuroscience, 2016).
